Laboratory results reported in US7288273B1, “Gallotannins and ellagitannins as regulators of cytokine release” (The Penn State Research Foundation, priority 2000, dated 2007).

Tested on: IL-1β secretion from h-PBMC's
Assay: IL-1β release from h-PBMC's, ELISA
Format: cell-based, human
Conditions: for IL-1β secreted in the presence of 17c-20c: h-PBMC's 2nd subject, ± SD
Method: Authentic samples of agrimoniin and coriariin A were supplied by Professor Yoshida (Okayama University, Japan). Dimeric gallotannin (analog of coriariin A) and β-D-PGG were synthesized as described. LPS (E. coli 055:B5 phenol extract, MW range 50-100 KD). Ficoll-Histopaque (ρ=1.077 g/mL), Fetal Bovine Serum, sterile, hybridoma tested (FCS), gentamicin 10 mg/mL. L-glutamine, 200 mM. Dextran B-512 Leuconostoc Av M.W. 580000, and Trypan Blue stain were purchased from Sigma. Hanks Buffer Saline Solution 1×, with phenol red, mediatech (HBSS) and RPMI 1640 1×, mediatech were purchased from Fisher Scientific, Human IL-1β and TNF-α Enzyme Linked ImmunoSorbent Assay (ELISA) kits were purchased from R and D Systems, Minneapolis, Minn. Fresh heparinized blood was obtained from health human subjects (ages 20-34).
Dose-Response Data: General Procedure. H-PBMC's were isolated by reported procedures (10. 18). The cells counted and the viability was determined by Trypan Blue exclusion (typically, viability exceeded 95%). The concentration of the cells in the 0.5 mL wells was adjusted to 1×10^6 cells/well by diluting with the required amount of RPMI.
The appropriate amount of a tannin (or LPS) stock solution in HBSS was added to each well to furnish the concentration values reported in the Figures. […] The culture plates were incubated in a 5% CO2, 37° C. humidified incubator for the indicated time. At the end of the time interval, 450 μL of the culture supernatant from each well was harvested, after centrifugation at 400 g, 25° C., 10 min. with brake, and stored at −78° C. pending ELISA analysis for the cytokine(s). The ELISA assays were conducted per the manufacturer's instructions using standard calibration curves to calculate cytokine concentration from observed absorbance readings. The cytokine values reported are averages of three runs±SE.
The dimeric antitumor ellagitannins coriariin A and agrimoniin, the monomeric gallotannin β-D-pentagalloylglucose (β-D-PGG) and the dimeric gallotannin of this invention were all examined in this study. The dimeric gallotannin is an analog of coriariin A and is identical to the parent ellagitannin except that the galloyl rings at O(4) and O(6) are not joined in a hexahydroxydiphenoyl (HHDP) linkage. h-PBMC's were incubated with the compound under investigation for the indicated length of time and the amounts of both IL-1β and, independently, TNF-α, present in the culture supernatants was determined using commercially available ELISA kits. In each case, LPS was used as a positive control while untreated cells were reserved as negative controls.
In the third study, compounds 17c-20c were examined for their ability to induce secretion of IL-1β from h-PBMC's (FIG. 16). Recall from the introduction that the cytokine IL-1β is also released in an LPS-stimulated septic shock response. The compounds that cause very little secretion of IL-1β or none at all will be the optimal compounds for potential septic shock therapeutics because they will be less likely themselves to induce a septic shock response.

O=C(OC[C@H]1O[C@@H](OC(=O)c2ccc(-c3ccc(C(=O)O[C@@H]4O[C@H](COC(=O)c5cc(O)c(O)c(O)c5)[C@@H](OC(=O)c5cc(O)c(O)c(O)c5)[C@H](OC(=O)c5cc(O)c(O)c(O)c5)[C@H]4OC(=O)c4cc(O)c(O)c(O)c4)cc3)cc2)[C@H](OC(=O)c2cc(O)c(O)c(O)c2)[C@@H](OC(=O)c2cc(O)c(O)c(O)c2)[C@@H]1OC(=O)c1cc(O)c(O)c(O)c1)c1cc(O)c(O)c(O)c1 [Compound 19c, 1,1′-O-2.2′,3,3′,4,4′,6,6′-Tetrakis(3,4,5-trihyroxybenzoyl)-β,β′-D,D′-glucopyranosylbiphenyl-4.4′-diester]
IL-1β secreted in the presence of 17c-20c (compound 0.6 μM): 54.2 ± 57.5 pg/mL
IL-1β secreted in the presence of 17c-20c (compound 2.8 μM): 60.9 ± 58.6 pg/mL
IL-1β secreted in the presence of 17c-20c (compound 5.6 μM): 14.5 ± 25.2 pg/mL
IL-1β secreted in the presence of 17c-20c (compound 11.2 μM): 9.4 ± 7.0 pg/mL
IL-1β secreted in the presence of 17c-20c (compound 16.8 μM): 41.3 ± 14.8 pg/mL
IL-1β secreted in the presence of 17c-20c (compound 22.5 μM): 23.2 ± 18.0 pg/mL
IL-1β secreted in the presence of 17c-20c (compound 28.1 μM): 41.3 ± 6.0 pg/mL
IL-1β secretion from h-PBMC's, in words: lowest amounts of IL-1β production

O=C(CCCCCC(=O)OC1O[C@H](COC(=O)c2cc(O)c(O)c(O)c2)[C@@H](OC(=O)c2cc(O)c(O)c(O)c2)[C@H](OC(=O)c2cc(O)c(O)c(O)c2)[C@H]1OC(=O)c1cc(O)c(O)c(O)c1)OC1O[C@H](COC(=O)c2cc(O)c(O)c(O)c2)[C@@H](OC(=O)c2cc(O)c(O)c(O)c2)[C@H](OC(=O)c2cc(O)c(O)c(O)c2)[C@H]1OC(=O)c1cc(O)c(O)c(O)c1 (mixture of isomers) [Compound 20c, 1,1′-O-2,2′,3,3′,4,4′,6,6′-Tetrakis(3,4,5-trihyroxybenzoyl)-β,β′-D,D′-glucopyranosylpimelate]
IL-1β secreted in the presence of 17c-20c (compound 0.6 μM): 0 pg/mL
IL-1β secreted in the presence of 17c-20c (compound 2.9 μM): 0 pg/mL
IL-1β secreted in the presence of 17c-20c (compound 5.9 μM): 0 pg/mL
IL-1β secreted in the presence of 17c-20c (compound 11.8 μM): 184.1 pg/mL
IL-1β secreted in the presence of 17c-20c (compound 17.6 μM): 230.0 pg/mL
IL-1β secreted in the presence of 17c-20c (compound 23.5 μM): 0 pg/mL
IL-1β secreted in the presence of 17c-20c (compound 29.4 μM): 204.2 pg/mL
IL-1β secretion from h-PBMC's, in words: lowest amounts of IL-1β production

O=C(OC[C@H]1O[C@@H](OC(=O)c2cccc(C(=O)O[C@@H]3O[C@H](COC(=O)c4cc(O)c(O)c(O)c4)[C@@H](OC(=O)c4cc(O)c(O)c(O)c4)[C@H](OC(=O)c4cc(O)c(O)c(O)c4)[C@H]3OC(=O)c3cc(O)c(O)c(O)c3)c2)[C@H](OC(=O)c2cc(O)c(O)c(O)c2)[C@@H](OC(=O)c2cc(O)c(O)c(O)c2)[C@@H]1OC(=O)c1cc(O)c(O)c(O)c1)c1cc(O)c(O)c(O)c1 [Compound 18c, 1,1′-O-2,2′,3,3′,4,4′,6,6′-Tetrakis(3,4,5-trihydroxybenzoyl)-β,β′-D-glucopyranosylisophthalate]
IL-1β secreted in the presence of 17c-20c (compound 0.6 μM): 0 pg/mL
IL-1β secreted in the presence of 17c-20c (compound 2.9 μM): 4.7 ± 8.1 pg/mL
IL-1β secreted in the presence of 17c-20c (compound 5.9 μM): 3.2 ± 5.5 pg/mL
IL-1β secreted in the presence of 17c-20c (compound 11.8 μM): 34.1 ± 48.2 pg/mL
IL-1β secreted in the presence of 17c-20c (compound 17.6 μM): 1266.0 ± 78.3 pg/mL
IL-1β secreted in the presence of 17c-20c (compound 23.5 μM): 631.2 ± 94.4 pg/mL
IL-1β secreted in the presence of 17c-20c (compound 29.4 μM): 2113.4 ± 393.0 pg/mL
